Source: patent US20250380696A1, “METHOD FOR CONTROLLING UNDESIRED PLANTS AND PROMOTING GROWTH OF USEFUL PLANTS” (ISHIHARA SANGYO KAISHA, LTD., priority 2022, published 2025)

Legend:
Format in all cases: in vivo
[1] = system: Italian ryegrass (Lolium multiflorum); experiment: (7) Herbicidal effect test, pot, spray at 2.8 to 3.0 leaf stage; conditions: 7th day after spraying
Description: (§1) [formula] • X: growth inhibition rate when treated with α (g/ha) of compound A, • Y: growth inhibition rate when treated with β (g/ha) of compound B, • E: growth inhibition rate expected when treated with α (g/ha) of compound A and β (g/ha) of compound B (expected value).
Upland soil was put in a 1/1,000,000 hectare pot, and seeds of Italian ryegrass (Lolium multiflorum) were sown. When Italian ryegrass reached 2.8 to 3.0 leaf stage, a water-based suspension containing tiafenacil as the active ingredient, prepared by a conventional method for preparing a water-based suspension, and an emulsifiable concentrate containing pethoxamid as the active ingredient (tradename: Successor 600, manufactured by Stahler Suisse SA) or an emulsifiable concentrate containing dimethenamid-P as the active ingredient (tradename: Fieldstar P emulsifiable concentrate, manufactured by BASF) were diluted with water (in an amount corresponding to 200 liter per hectare) containing 0.5 vol % of an agricultural spreader (tradename: Destiny HC, manufactured by Winfield Solutions, LLC.) and sprayed by a small spray gun (model: W-101-132G, manufactured by ANEST IWATA Corporation). On the 7th day after spraying, the state of growth of the Italian ryegrass was visually observed, and the growth inhibition rate (%) was obtained in accordance with the evaluation standards described in the above (1) herbicidal effect test, and the results are shown in Table 7. Further, the expected value of the growth inhibition rate (%) was calculated in accordance with the Colby's formula described in the above (1) herbicidal effect test, and the results are also shown in Table 7.

[2] = system: soybean (cultivar: Enrei); experiment: (23) Plant growth promotion effect test (soybean), Italian ryegrass sown, seed weight; conditions: 97th day after the sowing
Description: Upland soil was put in a 1/200,000 hectare pot, and seeds of Italian ryegrass (Lolium multiflorum) were sown. When the Italian ryegrass reached 2.5 to 3.0 leaf stage, a water-based suspension containing tiafenacil as the active ingredient, prepared by a conventional method for preparing a water-based suspension, and an emulsifiable concentrate containing S-metolachlor as the active ingredient (tradename: Dual Gold, manufactured by Syngenta), a wettable powder containing metribuzin as the active ingredient (tradename: SENCOR wettable powder, manufactured by Bayer Crop Science), water dispersible granules containing pyroxasulfone as the active ingredient (tradename: Sakura, manufactured by Bayer Crop Science), a wettable powder containing tri-allate as the active ingredient, prepared by a conventional method for preparing a wettable powder, an emulsifiable concentrate containing pethoxamid as the active ingredient (tradename: Successor 600, manufactured by Stähler Suisse SA) or an emulsifiable concentrate containing dimethenamid-P as the active ingredient (tradename: Fieldstar P emulsifiable concentrate, manufactured by BASF) were diluted with water (in an amount corresponding to 200 liter per hectare) containing 0.5 vol % of an agricultural spreader (tradename: Destiny HC, manufactured by Winfield Solutions, LLC.) and sprayed by a small spray gun (model: W-101-132G, manufactured by ANEST IWATA Corporation). Seeds of soybean (cultivar: Enrei, manufactured by Asahi Noen Seed Co., Ltd.) were sown in the pot after spraying and the soybean was cultivated. On the 97th day after the sowing, seeds were collected from the grown soybean, and their weight was measured to obtain the total weight.

[3] = system: soybean (cultivar: Enrei); experiment: (24) Plant growth promotion effect test (soybean), undesired plants not sown; conditions: 48th day after the sowing, above-ground part
Description: Upland soil was put in a 1/500,000 hectare pot, and a water-based suspension containing tiafenacil as the active ingredient, prepared by a conventional method for preparing a water-based suspension, and an emulsifiable concentrate containing S-metolachlor as the active ingredient (tradename: Dual Gold, manufactured by Syngenta), a wettable powder containing metribuzin as the active ingredient (tradename: SENCOR wettable powder, manufactured by Bayer Crop Science), water dispersible granules containing pyroxasulfone as the active ingredient (tradename: Sakura, manufactured by Bayer Crop Science), a wettable powder containing tri-allate as the active ingredient, prepared by a conventional method for preparing a wettable powder, an emulsifiable concentrate containing pethoxamid as the active ingredient (tradename: Successor 600, manufactured by Stähler Suisse SA) or an emulsifiable concentrate containing dimethenamid-P as the active ingredient (tradename: Fieldstar P emulsifiable concentrate, manufactured by BASF) were diluted with water (in an amount corresponding to 200 liter per hectare) containing 0.5 vol % of an agricultural spreader (tradename: Destiny HC, manufactured by Winfield Solutions, LLC.) and sprayed by a small spray gun (model: W-101-132G, manufactured by ANEST IWATA Corporation). Seeds of soybean (cultivar: Enrei, manufactured by Asahi Noen Seed Co., Ltd.) were sown in the pot after spraying. On the 48th day after the sowing, the above-ground part of the soybean was reaped, and its weight was measured to obtain the total weight.

[4] = system: waterhemp (Amaranthus tuberculatus); experiment: (12) Herbicidal effect test, pot, spray at 6.0 to 8.5 leaf stage; conditions: 13th day after spraying
Description: as §1
Upland soil was put in a 1/1,000,000 hectare pot, and seeds of waterhemp (Amaranthus tuberculatus) were sown. When waterhemp reached 6.0 to 8.5 leaf stage, a water-based suspension containing tiafenacil as the active ingredient, prepared by a conventional method for preparing a water-based suspension, and an emulsifiable concentrate containing S-metolachlor as the active ingredient (tradename: Dual Gold, manufactured by Syngenta), a wettable powder containing metribuzin as the active ingredient (tradename: SENCOR wettable powder, manufactured by Bayer Crop Science) or water dispersible granules containing pyroxasulfone as the active ingredient (tradename: Sakura, manufactured by Bayer Crop Science) were diluted with water (in an amount corresponding to 200 liter per hectare) containing 0.5 vol % of an agricultural spreader (tradename: Destiny HC, manufactured by Winfield Solutions, LLC.) and sprayed by a small spray gun (model: W-101-132G, manufactured by ANEST IWATA Corporation). On the 13th day after spraying, the state of growth of the waterhemp was visually observed, and the growth inhibition rate (%) was obtained in accordance with the evaluation standards described in the above (1) herbicidal effect test, and the results are shown in Table 12. Further, the expected value of the growth inhibition rate (%) was calculated in accordance with the Colby's formula described in the above (1) herbicidal effect test, and the results are also shown in Table 12.

CCOCCN(C(=O)CCl)C(=C(C)C)c1ccccc1 [pethoxamid]
Growth inhibition rate (%) Measured value ([1]; Dose 93.75 g/ha): 0%
Growth inhibition rate (%) Measured value ([1]; Dose 187.5 g/ha): 0%
Growth inhibition rate (%) Measured value ([1]; Dose 375 g/ha): 7%
Growth inhibition rate (%) Measured value ([1]; Dose 750 g/ha): 7%
Growth inhibition rate (%) Measured value ([1]; Dose 1500 g/ha): 12%
Total weight (g) of soybean seeds ([2]; Dose 750 g/ha): 11.0 g
Raw weight (g) of soybean ([3]; Dose 200 g/ha): 26.7 g

Cn1nc(C(F)(F)F)c(CS(=O)(=O)C2=NOC(C)(C)C2)c1OC(F)F [pyroxasulfone]
inhibition at 7.5 g/ha ([4]; Amaranthus tuberculatus, Dose 7.5 g/ha, read-out: Growth inhibition rate (%) Measured value): 10%
inhibition at 250 g/ha ([4]; Amaranthus tuberculatus, Dose 250 g/ha, read-out: Growth inhibition rate (%) Measured value): 17%
inhibition at 500 g/ha ([4]; Amaranthus tuberculatus, Dose 500 g/ha, read-out: Growth inhibition rate (%) Measured value): 13%
Total weight (g) of soybean seeds ([2]; Dose 125 g/ha): 15.6 g
Raw weight (g) of soybean ([3]; Dose 37.5 g/ha): 30.0 g

CCc1cccc(C)c1N(C(=O)CCl)[C@@H](C)COC [S-metolachlor]
Growth inhibition rate (%) Measured value ([4]; Dose 7.5 g/ha): 0%
Growth inhibition rate (%) Measured value ([4]; Dose 375 g/ha): 0%
Growth inhibition rate (%) Measured value ([4]; Dose 750 g/ha): 0%
Total weight (g) of soybean seeds ([2]; Dose 750 g/ha): 12.7 g
Raw weight (g) of soybean ([3]; Dose 75 g/ha): 27.1 g

COC(=O)CCNC(=O)C(C)Sc1cc(-n2c(=O)cc(C(F)(F)F)n(C)c2=O)c(F)cc1Cl (stereo not shown) [tiafenacil]
Growth inhibition rate (%) Measured value ([1]; Dose 6.25 g/ha): 15%
Growth inhibition rate (%) Measured value ([1]; Dose 12.5 g/ha): 37%
Growth inhibition rate (%) Measured value ([1]; Dose 25 g/ha): 33%
Growth inhibition rate (%) Measured value ([4]; Dose 6.25 g/ha): 33%
Total weight (g) of soybean seeds ([2]; Dose 12.5 g/ha): 14.3 g
Raw weight (g) of soybean ([3]; Dose 3 g/ha): 28.3 g

COC[C@H](C)N(C(=O)CCl)c1c(C)csc1C [dimethenamid-P]
Growth inhibition rate (%) Measured value ([1]; Dose 60 g/ha): 0%
Growth inhibition rate (%) Measured value ([1]; Dose 120 g/ha): 3%
Growth inhibition rate (%) Measured value ([1]; Dose 240 g/ha): 8%
Growth inhibition rate (%) Measured value ([1]; Dose 750 g/ha): 12%
Growth inhibition rate (%) Measured value ([1]; Dose 1500 g/ha): 15%
Total weight (g) of soybean seeds ([2]; Dose 750 g/ha): 14.1 g
Raw weight (g) of soybean ([3]; Dose 150 g/ha): 28.9 g

CC(C)N(C(=O)SCC(Cl)=C(Cl)Cl)C(C)C [tri-allate]
Total weight (g) of soybean seeds ([2]; Dose 625 g/ha): 17.0 g
Raw weight (g) of soybean ([3]; Dose 200 g/ha): 18.2 g

CSc1nnc(C(C)(C)C)c(=O)n1N [metribuzin]
inhibition at 9.38 g/ha ([4]; Amaranthus tuberculatus, Dose 9.38 g/ha, read-out: Growth inhibition rate (%) Measured value): 5%
inhibition at 550 g/ha ([4]; Amaranthus tuberculatus, Dose 550 g/ha, read-out: Growth inhibition rate (%) Measured value): 37%
inhibition at 1100 g/ha ([4]; Amaranthus tuberculatus, Dose 1100 g/ha, read-out: Growth inhibition rate (%) Measured value): 50%
Total weight (g) of soybean seeds ([2]; Dose 18.75 g/ha): 14.2 g
Raw weight (g) of soybean ([3]; Dose 150 g/ha): 16.1 g
